# From patent US20090239926A1, “METHODS FOR THE TREATMENT OF PSORIASIS OR PSORIATIC ARTHRITIS USING CYCLOPROPYL-N-CARBOXAMIDE” (priority 2008, published 2009)
# Values joined by “and” are separate entries in the source; they are usually repeats but may differ in a detail not shown here. Equal entries are not always repeated.
# Experiments:
# spontaneous behavior = assay: Spontaneous behavior (LABORAS) in non-arthritic mice; assay type: in vivo; conditions: 25 mg/kg/day
# Method: Behavioral studies: The effect of Compound A (25 mg/kg/day) on spontaneous behavior was assessed using the LABORAS (Laboratory Animal Behavior Observation Registration and Analysis System), which is an automated system that detects vibrations evoked by movement of a single rodent in a cage. Pattern recognition software then recognizes and quantifies behaviors, including grooming, activity, climbing, immobility, and feeding.
# Lymph node cells (LNC) = assay: Lymph node cells of collagen-immunized mice stimulated in vitro with type II collagen or anti-CD3 mAb; assay type: cell-based; conditions: FIG. 6
# Source text: Ex Vivo Procedure: Mice were bled and lymph nodes were excised. Lymph node cells (LNC) were stimulated in vitro with antigen (type II collagen) or mitogen (anti-CD3 mAb) in the presence of Compound A.
# [1] = tested on: LPS-stimulated human whole blood TNF-α production; assay: LPS-induced TNF-α production in human whole blood; assay type: cell-based
# Method: LPS-induced TNF-α production in Human Whole Blood: The ability of Compound A to inhibit LPS-induced TNF-α production by human whole blood was measured as described above for the LPS-induced TNF-α assay in human PBMC, except that freshly drawn whole blood was used instead of PBMC.
# [2] = tested on: cAMP in PGE2-stimulated human PBMC; assay: PGE2-induced cAMP elevation in human PBMC; assay type: cell-based; conditions: PGE2 10 μM
# Source text: Prostaglandin E2 (PGE2) binds to prostanoid receptors on monocytes, T cells and other leukocytes and consequently elevates intracellular cAMP levels, resulting in inhibition of cellular responses. The combination of PGE2 and a PDE4 inhibitor synergistically elevates cAMP levels in these cell types, and the elevation of cAMP in PBMC caused by PDE4 inhibitors in the presence of PGE2 is proportional to the inhibitory activity of that PDE4 inhibitor.
# Human PBMCs were isolated as described above and plated in 96-well plates at 1×10^6 cells per well in RPMI-1640. The cells were pre-treated with Compound A in a final concentration of 2% DMSO in duplicate at 37° C. in a humidified incubator at 5% CO2 for one hour. The cells were then stimulated with PGE2 (10 μM) (Sigma) for one hour. The cells were lysed with HCl, 0.1N final concentration to inhibit phosphodiesterase activity and the plates were frozen at −20° C. The cAMP produced was measured using cAMP (low pH) Immunoassay kit (R&D Systems).
# [3] = tested on: IL-5 production by human CD4+ T cells; assay: IL-5 production by CD4+ T cells; assay type: cell-based; conditions: CD4+ T cell, stimulated with CD3 antibody OKT3 and CD28 antibody CD28.2
# Method: CD4^+ T cells were purified from human leukocytes obtained from the Blood Center of New Jersey (East Orange, N.J.) by negative selection (Schafer, P. H., et al., J Immunol, 1999. 162(12): 7110-9). CD4^+ T cells were stimulated with CD3 antibody OKT3 (purified from OKT3 hybridoma supernatant) and CD28 antibody CD28.2 (BD Pharmingen) (Hatzelmann, A. and C. Schudt, J Pharmacol Exp Ther, 2001. 297(1): 267-79). IL-5 was measured by ELISA (R&D Systems).
# [4] = tested on: fMLF-induced neutrophil LTB4 production; assay: fMLF-induced neutrophil LTB4 production; assay type: cell-based; conditions: Homo sapiens, 0.5 h, 1 μM fMLP, 30 minutes
# Method: Formyl-Met-Leu-Phe (fMLP, Sigma) is a bacterially derived peptide that activates neutrophils to rapidly degranulate, migrate, and adhere to endothelial cells. Among the contents of the neutrophil granule is leukotriene B4 (LTB4), a product of arachidonic acid metabolism and itself a neutrophil stimulant. Compound A was tested for the ability to block fMLF-induced neutrophil LTB4 production.
# Human neutrophils were isolated from human leukocyte units by dextran sedimentation as described in Coligan, J. E., et al., Current Protocols in Immunology, ed. R. Coico. Vol. 2. 2002: 2-3. The neutrophils were resuspended in phosphate-buffered saline without calcium or magnesium (BioWhittaker) containing 10 mM HEPES pH 7.2 and plated in 96-well tissue culture plates at a concentration of 1.7×10^6 cells/well. Cells were treated with 50 μM thimerosal (Sigma)/1 mM CaCl2/1 mM MgCl2 for 15 minutes at 37° C. 5% CO2, then treated with Compound A in a final DMSO concentration of 0.01% in duplicate for 10 minutes. Neutrophils were stimulated with 1 μM fMLP for 30 minutes, then lysed by the addition of methanol (20% final concentration) and frozen in a dry ice/isopropanol bath for 10 minutes. Lysates were stored at −70° C. until the LTB4 content was measured by competitive LTB4 ELISA (R&D systems).
# [5] = tested on: CD11b expression on neutrophils; assay: fMLF-induced neutrophil CD11b expression; assay type: cell-based; conditions: Homo sapiens, 0.5 h, 30 nM fMLF, 30 minutes, flow cytometry
# Method: CD18/CD11b (Mac-1) expression on neutrophils was measured with the following modifications. (Derian, C. K., et al., J Immunol, 1995. 154(1): 308-17). Neutrophils were isolated as described above, then resuspended in complete medium at 1×10^6 cells/ml, pretreated with Compound A at 10, 1, 0.1, 0.01, and 0 μM in duplicate at a final DMSO concentration of 0.1% for 10 minutes at 37° C. 5% CO2. Cells were then stimulated with 30 nM fMLF for 30 minutes and then chilled to 4° C. Cells were treated with rabbit IgG (Jackson ImmunoResearch Labs, West Grove, Pa., USA) (10 μg/1×10^6 cells) to block Fc receptors, stained with CD18-FITC and CD11b-PE (Becton Dickinson), and analyzed by flow cytometry on a FACSCalibur. CD18/CD11b expression (mean fluorescence) in the absence of stimulation was subtracted from all samples to obtain inhibition curves and calculate IC50.
smiles,measurement,setting,value
"CCOc1cc([C@@H](CS(C)(=O)=O)N2Cc3cccc(NC(=O)C4CC4)c3C2=O)ccc1OC [Compound A, cyclopropyl-N-{2-[(1S)-1-(3-ethoxy-4-methoxyphenyl)-2-(methylsulfonyl)ethyl]-3-oxoisoindoline-4-yl}carboxamide]",effect on climbing,spontaneous behavior,little or no effect
same,effect on grooming,spontaneous behavior,little or no effect
same,effect on locomotion,spontaneous behavior,only a modest reduction
same,effect on time spent immobile,spontaneous behavior,little or no effect
same,production of the Th2 cytokine IL-5,Lymph node cells (LNC),unaffected
same,IFN-γ production,Lymph node cells (LNC); dose-dependent,inhibited
same,T cell proliferation,Lymph node cells (LNC); dose-dependent,inhibited
same,TNF-α production,Lymph node cells (LNC); dose-dependent,inhibited
same,IC50,[1],240 nM and 0.11 µg/mL
same,EC50,[2],6.1 µM and 2.9 µg/mL
same,IC50,[3],520 nM and 0.25 µg/mL
same,IC50,[4],10 nM and 0.0047 µg/mL
same,IC50,[5],30 nM and 0.014 µg/mL
